Test results from publication PMC9033217, “Synthesis, characterization and biological evaluation of dipicolylamine sulfonamide derivatized platinum complexes as potential anticancer agents” (RSC Advances, 2021).

Columns and labels:
[1] = test system: human breast cancer cells (MCF-7); assay: Antiproliferative activity / cytotoxicity by sulforhodamine B assay in MCF-7 cells; format: cell-based; details: for IC50: MCF7, MCF-7 human breast cancer cells, 24 hours exposure, sulforhodamine B assay, triplicate
Protocol: (§1) The ligands and corresponding metal complexes were investigated for their cytotoxicity against MCF-7 (breast cancer) cells and MCF-10A (normal human breast) cells. Cells were cultured in 96-well culture plates and exposed to 12.5 μg ml^−1, 25 μg ml^−1, 50 μg ml^−1 and 100 μg ml^−1 concentrations of ligands and complexes for 24 hours and cytotoxicity was assessed by sulforhodamine B assay. All exposures were carried out in triplicate. Briefly, the cell supernatant was completely removed and washed with phosphate buffer solution. Trichloroacetic acid (50%, […]) was added on top of fetal bovine serum-free fresh medium (200 μl) to make final concentration of 10% trichloroacetic acid and was incubated at 4 °C for one hour prior to the SRB assay. The plates were then washed with five washing cycles with water and dried completely. An aliquot of 100 μl of 0.4% sulforhodamine B dissolved in 1% trichloroacetic acid, was added to each well, and was allowed to stain for 15 minutes. The plates were again washed with five washing cycles to remove unbound dye using 1% (vol/vol) acetic acid after removing the stain. The protein bound dye was solubilized with trisbase (10 mM, pH 7.5, 200 μl), after air drying. The plates were then shaken for 60 minutes to homogenize the dye solution. The absorbance was then measured at 540 nm using Synergy HTBioTek microplate reader. The percentage viability was calculated by the equation given below.1 [drawing 1]
(§2) Three ligands and three novel complexes were assayed for their antiproliferative activity in human breast cancer cells (MCF-7) and normal human breast cells (MCF-10A). In this study, the cell lines were exposed to synthesized compounds in a concentration gradient up to […] and the half maximal inhibitory concentration (IC50) was determined for each compound. Cytotoxicity was measured with sulforhodamine B assay.

[2] = test system: normal human breast cells (MCF-10A); assay: Antiproliferative activity / cytotoxicity by sulforhodamine B assay in MCF-10A cells; format: cell-based; details: MCF-10A normal human breast cells, 24 hours exposure, triplicate
Protocol: as §1, §2

| Compound | shape of cytotoxicity curve ([1]; Fig. S3, IC50 graphs against MCF-7) | IC50 [1] [µM] | IC50 [2] [µM] |
| --- | --- | --- | --- |
| O=S(=O)(c1cccc2ccccc12)N(Cc1ccccn1)Cc1ccccn1 [N(SO2(1-nap))dpa] | biphasic cytotoxicity curve | 92 ± 0.06 | 1583 ± 0.04 |
| O=S(=O)(c1ccc2ccccc2c1)N(Cc1ccccn1)Cc1ccccn1 [N(SO2(2-nap))dpa] |  | 18.1 ± 0.1 | 581 ± 0.04 |
| O=S(=O)(N1CCCCC1)N(Cc1ccccn1)Cc1ccccn1 [N(SO2pip)dpa] |  | 21.2 ± 0.1 | 948.5 ± 0.04 |
